Results taken from ChEMBL document CHEMBL3045868, “Synthesis and antibacterial activities of para-alkoxy phenyl--ketoaldehyde derivatives” (Med Chem Res, 2013).

What was measured:
Type in all cases: functional
Staphylococcus aureus [1] = experiment: Antibacterial activity against Staphylococcus aureus clinical isolate assessed as growth inhibition at pH 9 after 16 to 18 hr by NCCLS agar dilution method
Staphylococcus aureus [2] = experiment: Antibacterial activity against Staphylococcus aureus clinical isolate 1 assessed as growth inhibition at pH 9 after 16 to 18 hr by NCCLS agar dilution method
Staphylococcus aureus [3] = experiment: Antibacterial activity against Staphylococcus aureus clinical isolate 4 assessed as growth inhibition at pH 7 after 16 to 18 hr by NCCLS agar dilution method
Staphylococcus aureus [4] = experiment: Antibacterial activity against Staphylococcus aureus clinical isolate 8 assessed as growth inhibition after 16 to 18 hr by NCCLS agar dilution method
Staphylococcus aureus [5] = experiment: Antibacterial activity against Staphylococcus aureus clinical isolate 15 assessed as growth inhibition at pH 5 after 16 to 18 hr by NCCLS agar dilution method
Staphylococcus aureus [6] = experiment: Antibacterial activity against Staphylococcus aureus clinical isolate 15 assessed as growth inhibition at pH 7 after 16 to 18 hr by NCCLS agar dilution method
Staphylococcus aureus [7] = experiment: Antibacterial activity against methicillin-resistant Staphylococcus aureus isolate 5 assessed as growth inhibition after 16 to 18 hr by NCCLS agar dilution method
Staphylococcus aureus [8] = experiment: Bactericidal activity against Staphylococcus aureus clinical isolate 1 after 24 hr; conditions: isolate 1, 24 h
Staphylococcus aureus [9] = experiment: Bactericidal activity against Staphylococcus aureus clinical isolate 8 after 24 hr; conditions: isolate 8, 24 h
Staphylococcus aureus [10] = experiment: Antibacterial activity against Staphylococcus aureus clinical isolate 18 assessed as growth inhibition at pH 5 after 16 to 18 hr by NCCLS agar dilution method
Staphylococcus aureus [11] = experiment: Antibacterial activity against Staphylococcus aureus clinical isolate 6 assessed as growth inhibition at pH 9 after 16 to 18 hr by NCCLS agar dilution method
Helicobacter pylori [12] = experiment: Antibacterial activity against Helicobacter pylori 06-6 assessed as growth inhibition after 16 to 18 hr NCCLS agar dilution method
Staphylococcus aureus [13] = experiment: Antibacterial activity against Staphylococcus aureus clinical isolate 1 assessed as growth inhibition after 16 to 18 hr by NCCLS agar dilution method
Staphylococcus aureus [14] = experiment: Antibacterial activity against Staphylococcus aureus clinical isolate 24 assessed as growth inhibition at pH 7 after 16 to 18 hr by NCCLS agar dilution method
Staphylococcus aureus [15] = experiment: Antibacterial activity against Staphylococcus aureus clinical isolate 2 assessed as growth inhibition at pH 7 after 16 to 18 hr by NCCLS agar dilution method
Staphylococcus aureus [16] = experiment: Antibacterial activity against Staphylococcus aureus clinical isolate 24 assessed as growth inhibition at pH 9 after 16 to 18 hr by NCCLS agar dilution method
Staphylococcus aureus [17] = experiment: Antibacterial activity against Staphylococcus aureus clinical isolate 18 assessed as growth inhibition at pH 7 after 16 to 18 hr by NCCLS agar dilution method
Staphylococcus aureus [18] = experiment: Antibacterial activity against Staphylococcus aureus clinical isolate 2 assessed as growth inhibition after 16 to 18 hr by NCCLS agar dilution method
Staphylococcus aureus [19] = experiment: Antibacterial activity against Staphylococcus aureus clinical isolate 9 assessed as growth inhibition after 16 to 18 hr by NCCLS agar dilution method
Staphylococcus aureus [20] = experiment: Antibacterial activity against Staphylococcus aureus clinical isolate 5 assessed as growth inhibition after 16 to 18 hr by NCCLS agar dilution method
Staphylococcus aureus [21] = experiment: Antibacterial activity against Staphylococcus aureus clinical isolate 8 assessed as growth inhibition at pH 9 after 16 to 18 hr by NCCLS agar dilution method
Helicobacter pylori [22] = experiment: Antibacterial activity against Helicobacter pylori 05-14 assessed as growth inhibition after 16 to 18 hr NCCLS agar dilution method
Helicobacter pylori [23] = experiment: Antibacterial activity against Helicobacter pylori 06-2 assessed as growth inhibition after 16 to 18 hr NCCLS agar dilution method
Staphylococcus aureus [24] = experiment: Antibacterial activity against Staphylococcus aureus clinical isolate 10 assessed as growth inhibition at pH 7 after 16 to 18 hr by NCCLS agar dilution method
Staphylococcus aureus [25] = experiment: Antibacterial activity against Staphylococcus aureus clinical isolate 16 assessed as growth inhibition at pH 9 after 16 to 18 hr by NCCLS agar dilution method
Staphylococcus aureus [26] = experiment: Antibacterial activity against Staphylococcus aureus clinical isolate assessed as growth inhibition at pH 5 after 16 to 18 hr by NCCLS agar dilution method
Staphylococcus aureus [27] = experiment: Bactericidal activity against methicillin-resistant Staphylococcus aureus isolate 4 after 24 hr; conditions: isolate 4, 24 h
Staphylococcus aureus [28] = experiment: Antibacterial activity against Staphylococcus aureus clinical isolate 12 assessed as growth inhibition at pH 9 after 16 to 18 hr by NCCLS agar dilution method
Staphylococcus aureus [29] = experiment: Antibacterial activity against Staphylococcus aureus clinical isolate 8 assessed as growth inhibition at pH 5 after 16 to 18 hr by NCCLS agar dilution method
Staphylococcus aureus [30] = experiment: Bactericidal activity against methicillin-resistant Staphylococcus aureus isolate 3 after 24 hr; conditions: isolate 3, 24 h
Pseudomonas aeruginosa = experiment: Antibacterial activity against Pseudomonas aeruginosa ATCC 27853 assessed as growth inhibition after 16 to 18 hr NCCLS agar dilution method
Helicobacter pylori [31] = experiment: Antibacterial activity against Helicobacter pylori 06-3 assessed as growth inhibition after 16 to 18 hr NCCLS agar dilution method
Staphylococcus aureus [32] = experiment: Antibacterial activity against Staphylococcus aureus ATCC 25923 assessed as growth inhibition after 16 to 18 hr by NCCLS agar dilution method
Staphylococcus aureus [33] = experiment: Antibacterial activity against Staphylococcus aureus clinical isolate 8 assessed as growth inhibition at pH 7 after 16 to 18 hr by NCCLS agar dilution method
Staphylococcus aureus [34] = experiment: Antibacterial activity against Staphylococcus aureus clinical isolate 21 assessed as growth inhibition at pH 9 after 16 to 18 hr by NCCLS agar dilution method
Staphylococcus aureus [35] = experiment: Antibacterial activity against Staphylococcus aureus clinical isolate 16 assessed as growth inhibition at pH 5 after 16 to 18 hr by NCCLS agar dilution method
Staphylococcus aureus [36] = experiment: Antibacterial activity against Staphylococcus aureus clinical isolate 11 assessed as growth inhibition at pH 7 after 16 to 18 hr by NCCLS agar dilution method
Staphylococcus aureus [37] = experiment: Antibacterial activity against Staphylococcus aureus clinical isolate 6 assessed as growth inhibition after 16 to 18 hr by NCCLS agar dilution method
Staphylococcus aureus [38] = experiment: Antibacterial activity against Staphylococcus aureus clinical isolate 16 assessed as growth inhibition at pH 7 after 16 to 18 hr by NCCLS agar dilution method
Staphylococcus aureus [39] = experiment: Bactericidal activity against Staphylococcus aureus clinical isolate 4 after 24 hr; conditions: isolate 4, 24 h
Helicobacter pylori [40] = experiment: Antibacterial activity against Helicobacter pylori 05-9 assessed as growth inhibition after 16 to 18 hr NCCLS agar dilution method
Staphylococcus aureus [41] = experiment: Antibacterial activity against methicillin-resistant Staphylococcus aureus isolate 1 assessed as growth inhibition after 16 to 18 hr by NCCLS agar dilution method
Staphylococcus aureus [42] = experiment: Antibacterial activity against Staphylococcus aureus clinical isolate 7 assessed as growth inhibition at pH 9 after 16 to 18 hr by NCCLS agar dilution method

CO/N=C/CC(=O)c1ccc(OC)cc1
16 µg/mL: MIC90 (Staphylococcus aureus [1]) | MIC (Staphylococcus aureus [2]) | MIC (Staphylococcus aureus [3]) | MIC (Staphylococcus aureus [4]) | MIC (Staphylococcus aureus [5]) | MIC (Helicobacter pylori [12]) | MIC (Staphylococcus aureus [13]) | MIC (Staphylococcus aureus [15]) | MIC (Staphylococcus aureus [17]) | MIC (Staphylococcus aureus [18]) | MIC (Staphylococcus aureus [19]) | MIC (Helicobacter pylori [22]) | MIC (Staphylococcus aureus [33]) | MIC (Staphylococcus aureus [36])
32 µg/mL: MBC (Staphylococcus aureus [9]) | MIC (Staphylococcus aureus [10]) | MIC (Helicobacter pylori [23]) | MIC (Staphylococcus aureus [24]) | MIC50 (Staphylococcus aureus [26]) | MIC (Staphylococcus aureus [29]) | MIC (Helicobacter pylori [31]) | MIC (Staphylococcus aureus [35])
8 µg/mL: MIC50 (Staphylococcus aureus [1]) | MIC (Staphylococcus aureus [6]) | MIC (Staphylococcus aureus [7]) | MIC (Staphylococcus aureus [11]) | MIC (Staphylococcus aureus [14]) | MIC (Staphylococcus aureus [16]) | MIC (Staphylococcus aureus [20]) | MIC (Staphylococcus aureus [21]) | MIC (Staphylococcus aureus [25]) | MIC (Staphylococcus aureus [28]) | MIC (Staphylococcus aureus [34]) | MIC (Staphylococcus aureus [37]) | MIC (Staphylococcus aureus [38]) | MIC (Staphylococcus aureus [41]) | MIC (Staphylococcus aureus [42])
128 µg/mL: MBC (Staphylococcus aureus [8]) | MBC (Staphylococcus aureus [39])
2 µg/mL: MIC (Staphylococcus aureus [32])
64 µg/mL: MIC90 (Staphylococcus aureus [26]) | MIC (Helicobacter pylori [40])
> 64 µg/mL: MIC (Pseudomonas aeruginosa)
256 µg/mL: MBC (Staphylococcus aureus [27]) | MBC (Staphylococcus aureus [30])
